Consider one compound from EP3431468B1, “USE OF ADIPONECTIN RECEPTOR AGONISTS IN TREATING DEPRESSION, ANXIETY AND NEUROINFLAMMATION” (CENTRE NATIONAL DE LA RECHERCHE SCIENTIFIQUE, priority 2017, dated 2019).

Each structure is given as a SMILES string.

Common to all, as to type: in vivo
The test system of assay [1] is corticosterone-treated mice. Nature of the assay: Sucrose preference test, chronic administration. The note with it: chronic 1mg/kg ip daily. As for the experimental part: (§1) Three well-established mouse models of depression-like behavior have been used in the present study namely i- the long-term corticosterone treatment in the drinking water (David, Samuels et al. 2009), ii- the peripheral administration of LPS (O'Connor, Lawson et al. 2009) iii- the ApN^-/- mice (Liu, Guo et al. 2012). For chronic AdipoRon treatment, the experimental protocol was as followed: • i- Five weeks old male mice (five/cage) received corticosterone (35mg/L dissolved in tap water containing 4 g/L CD) or vehicle alone ad libitum for during 7 consecutive weeks (David, Samuels et al. 2009). Corticosterone and vehicle solutions were changed every 3 days to prevent possible degradation. […]
(§2) All behavioral testing were conducted during the light phase (between 09:00 and 14:00 am) in compliance with the Institutional Animal Care and Use Committee of the University of Nice-Sophia Antipolis (permission number 010344.01 from the French "Ministère de l'Enseignement Supérieur et de la Recherche" granted to Dr. Joëlle Chabry). • Forced Swimming test (FST) - Mice were placed an inescapable transparent tank (20cm diameter, 30cm deep) filled with water (23°C ± 0.5) for six minutes as previously described by Porsolt et al. (1977). […] To initiate testing, mice were placed into the light side and activity was recorded for 5 minutes. […]

The subject of assay [2] is corticosterone-treated mice. Briefly: Learned Helplessness (LH), chronic administration. The following applies: chronic 1mg/kg ip daily. The procedure:
as §1, §2

Assay [3] has as its system serotonin pathway. Briefly: 5-HT and 5-HIAA levels in dorsal raphe nucleus. The following applies: corticosterone-exposed mice, chronic AdipoRon.
Assay [4] has as its system corticosterone-treated mice. Nature of the assay: Forced Swimming test (FST), chronic administration. The following applies: chronic 1mg/kg ip daily. The procedure: as §1, §2
Assay [5] relates to corticosterone-treated mice. Nature of the assay: Light & Dark test (L&D), chronic administration. The following applies: chronic 1mg/kg ip daily. The procedure: as §1, §2
Assay [6] concerns corticosterone-treated mice. Nature of the assay: Social interaction test, chronic administration. The note with it: chronic 1mg/kg ip daily. As for the experimental part: as §1, §2
Where [7] appears, read: vehicle-treated mice (no corticosterone).

`O=C(COc1ccc(C(=O)c2ccccc2)cc1)NC1CCN(Cc2ccccc2)CC1` [AdipoRon, 2-(4-Benzoylphenoxy)-N-[1-(phenylmethyl)-4-piperidinyl]-acetamide]: the figures for the “sucrose preference (anhedonia)” value in assay [1] (corticosterone-treated mice) and in assay [1] (setting [7]) were “reversed the effect of corticosterone” and “no significant effect”, respectively. The results for the “resignation-like behavior in the LH test (latency, failures to escape)” value in assay [2] (corticosterone-treated mice) and in assay [2] (setting [7]) were “reversed the effect of corticosterone” and “no significant effect”, respectively. In addition, in assay [3], the 5-HT level result is given as “without modifying the 5-HT level”. Besides, the “level of 5-HIAA” value in assay [3] was “increased the level of 5-HIAA”. Moreover, the “ratio 5-HIAA/5-HT” value in assay [3] is listed as “threefold increase”. Also, the “immobility duration in the FST (resignation)” value is reported as “reversed the effect of corticosterone” in assay [4] (corticosterone-treated mice) and “no significant effect” in assay [4] (setting [7]). The “time spent in the aversive light chamber (anxiety behavior)” value is on record as “reversed the anxiety phenotype” in assay [5] (corticosterone-treated mice) and “without effect” in assay [5] (setting [7]). For the same compound, the social interactions result was “reversed the effect of corticosterone” in assay [6] (corticosterone-treated mice) and “no significant effect” in assay [6] (setting [7]).
